Results from patent US20220323406A1, “METHODS AND COMPOSITIONS FOR DIFFERENTIATING STEM CELLS” (Massachusetts Institute of Technology, priority 2019, published 2022).

Experiments:
Details in all cases: primary screen
[1] = system: ENR+CD organoids (ISC to Paneth cell differentiation); assay: Primary screen: basal (non-stimulated) lysozyme secretion LYZ.NS, 2.5-D 384-well ENR+CD organoid differentiation; format: cell-based, mouse
Description: (§1) High-throughput screening.

[2] = system: ENR+CD organoids (ISC to Paneth cell differentiation); assay: Primary screen: CCh-stimulated lysozyme secretion LYZ.S, 2.5-D 384-well ENR+CD organoid differentiation; format: cell-based, mouse
Description: as §1

[3] = system: ENR+CD organoids; assay: Primary screen: ATP (CellTiter-Glo 3D, CTG) cell number/viability, 2.5-D 384-well ENR+CD organoids;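 also: compounds given at plating and again on day 3 over a 6-day differentiation from ENR+CV stem-cell-enriched precursors, ATP measured on day 6, plate median as control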

SMILES	Dose.FC.LYZ.NS ([1]; dose 0.08 uM) [log2 fold change]	Z.LYZ.NS (standard z score) ([1]; dose 0.08 uM)	Dose.FC.LYZ.NS ([1]; dose 0.40 uM) [log2 fold change]	Z.LYZ.NS (standard z score) ([1]; dose 0.40 uM)	Dose.FC.LYZ.NS ([1]; dose 2.00 uM) [log2 fold change]	Z.LYZ.NS (standard z score) ([1]; dose 2.00 uM)	Dose.FC.LYZ.NS ([1]; dose 10.00 uM) [log2 fold change]	Z.LYZ.NS (standard z score) ([1]; dose 10.00 uM)	Dose.FC.LYZ.S ([2]; dose 0.08 uM) [log2 fold change]	Dose.FC.LYZ.S ([2]; dose 0.40 uM) [log2 fold change]	Dose.FC.LYZ.S ([2]; dose 2.00 uM) [log2 fold change]	Dose.FC.LYZ.S ([2]; dose 10.00 uM) [log2 fold change]	Dose.FC.CTG ([3]; dose 0.08 uM) [log2 fold change]	Z.CTG (standard z score) ([3]; dose 0.08 uM)	Dose.FC.CTG ([3]; dose 0.40 uM) [log2 fold change]	Z.CTG (standard z score) ([3]; dose 0.40 uM)	Dose.FC.CTG ([3]; dose 2.00 uM) [log2 fold change]	Z.CTG (standard z score) ([3]; dose 2.00 uM)	Dose.FC.CTG ([3]; dose 10.00 uM) [log2 fold change]	Z.CTG (standard z score) ([3]; dose 10.00 uM)
CN(C)Cc1ccc(-c2nc3cccc4c3n2CCNC4=O)cc1 [AG-14361]	0.152	1.324	0.036	0.312	0.032	0.278	−0.197	−1.713	0.100	−0.001	−0.065	−0.189	−0.012	−0.028	−0.069	−0.165	0.005	0.012	−0.021	−0.050
Cc1ccccc1C(C(=O)NC1CCCCC1)N(C(=O)Cn1ccnc1C)c1cccc(F)c1 (centres unmarked) [AGI-5198]	0.055	0.482	0.042	0.362	0.039	0.342	−0.007	−0.064	0.092	0.185	0.073	−0.005	0.309		0.154		0.281		0.336	
O=C(Nc1cccc(C(F)(F)F)c1)Nc1cc(S(=O)(=O)NC2CC2)ccc1-c1ccsc1 [AGI-6780]	0.069	0.597	0.031	0.268	0.043	0.374	−0.090	−0.785	0.095	0.156	0.055	−0.054	0.281	0.671	0.231	0.551	0.298	0.713	0.107	0.256
CN1CCCCC1Cn1cc(C(=O)c2cc([N+](=O)[O-])ccc2I)c2ccccc21 (centres unmarked) [AM1241]	0.052	0.454	0.004	0.035	−0.014	−0.123	−0.003	−0.028	0.046	0.088	−0.017	−0.080	0.159	0.379	−0.054	−0.129	−0.062	−0.147	−0.001	−0.002
CC(=O)Nc1nc2c(Oc3cc(-c4ccc(C(F)(F)F)cc4)ncn3)cccc2s1 [AMG-517]	0.020	0.178	0.060	0.522	−0.006	−0.051	0.031	0.267	0.084	0.060	0.002	0.266	0.161		0.113		0.112		0.056	
